# Measurements: patent publication US20210322443A1 (MAPREG, priority 2015, published 2021)
# Assays:
# [1] = biological target: T1, human progesterone receptor(PR) (Homo sapiens, UniProt P06401); assay: Progesterone receptor antagonist transactivation test (progesterone 1 nM) in transfected HEK293T cells; assay type: cell-based; settings: with progesterone 1 nM, increasing amounts, FIG. 2
# T1 construct: expressed in transfected cells; host or cells: HEK293T
# T1 sequence (P06401 1-933): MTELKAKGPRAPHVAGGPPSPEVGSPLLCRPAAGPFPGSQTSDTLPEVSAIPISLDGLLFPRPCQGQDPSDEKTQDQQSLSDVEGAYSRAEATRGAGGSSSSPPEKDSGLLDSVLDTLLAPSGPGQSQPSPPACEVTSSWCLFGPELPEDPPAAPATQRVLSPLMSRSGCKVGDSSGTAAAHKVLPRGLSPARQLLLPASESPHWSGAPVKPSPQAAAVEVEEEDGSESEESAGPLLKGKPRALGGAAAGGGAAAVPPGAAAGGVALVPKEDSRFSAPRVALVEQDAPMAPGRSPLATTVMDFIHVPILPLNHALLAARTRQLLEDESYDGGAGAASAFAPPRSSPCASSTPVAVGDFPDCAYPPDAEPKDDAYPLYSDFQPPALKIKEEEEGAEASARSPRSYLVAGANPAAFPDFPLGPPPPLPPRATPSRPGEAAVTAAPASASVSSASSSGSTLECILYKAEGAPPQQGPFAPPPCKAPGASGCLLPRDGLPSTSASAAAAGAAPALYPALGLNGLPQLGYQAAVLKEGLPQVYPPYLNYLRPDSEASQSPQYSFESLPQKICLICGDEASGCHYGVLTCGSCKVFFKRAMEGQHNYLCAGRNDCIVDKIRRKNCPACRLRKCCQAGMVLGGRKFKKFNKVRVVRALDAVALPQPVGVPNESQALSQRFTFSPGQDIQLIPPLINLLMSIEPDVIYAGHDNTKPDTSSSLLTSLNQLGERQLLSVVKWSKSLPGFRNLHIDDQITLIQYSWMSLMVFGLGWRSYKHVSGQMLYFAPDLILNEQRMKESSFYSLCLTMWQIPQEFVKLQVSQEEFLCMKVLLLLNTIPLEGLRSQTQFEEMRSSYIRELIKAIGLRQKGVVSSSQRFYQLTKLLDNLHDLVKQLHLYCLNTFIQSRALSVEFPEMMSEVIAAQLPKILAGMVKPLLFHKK
# Experimental: The main experimental setting used is the following: HEK293T cells were transiently transfected, using calcium phosphate precipitation technology, with expression vectors pSG5hPR (which permits expression of human progesterone receptor(PR)), pFC31-luc (contains the luciferase gene under the control of the MMTV promoter, which is in turn activated by binding of a progestin to progesterone receptor) and pcbetagal (which permits expression of betagalactosidase), and cultured during 24 hours with increasing amounts of various compositions: • 1. […] Test of progesterone receptor […] activity: transfected cells were cultured with progesterone (1 nM) and increasing amounts of RU486 (a well-known progesterone receptor antagonist) or 3-methoxy-pregnenolone. • With this setting, a compound with progesterone receptor antagonist activity competes with progesterone for the occupation of progesterone receptor and results in a progressive loss of transactivation activity when the amount of this compound is increased compared to progesterone.
# [2] = biological target: Cannabinoid CB1 (Homo sapiens, UniProt P21554); assay: CNS receptor binding assay; settings: [3H] CP55940, Human recombinant (CHO cells), read-out: % Inhibition of control specific binding
# Cannabinoid CB1, sequence (P21554 whole entry): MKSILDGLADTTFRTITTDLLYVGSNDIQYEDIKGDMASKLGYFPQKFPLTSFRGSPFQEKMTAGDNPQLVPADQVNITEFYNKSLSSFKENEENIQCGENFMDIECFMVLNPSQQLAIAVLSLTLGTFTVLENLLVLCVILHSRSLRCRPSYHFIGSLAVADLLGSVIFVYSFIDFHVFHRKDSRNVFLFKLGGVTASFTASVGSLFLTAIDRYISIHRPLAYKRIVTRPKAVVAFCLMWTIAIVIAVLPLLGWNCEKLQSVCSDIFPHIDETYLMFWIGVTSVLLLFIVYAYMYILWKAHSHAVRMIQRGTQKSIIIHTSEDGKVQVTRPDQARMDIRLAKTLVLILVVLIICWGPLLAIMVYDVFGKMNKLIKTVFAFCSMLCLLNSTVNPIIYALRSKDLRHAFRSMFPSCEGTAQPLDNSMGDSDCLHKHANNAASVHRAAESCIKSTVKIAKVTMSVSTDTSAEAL
# [3] = tested on: alcohol self-administration; assay: Operant alcohol self-administration in ethanol dependent and non-dependent rats; assay type: in vivo, Wistar rats
# Experimental: Alcohol self-administration in ethanol dependent and non-dependent animals is a well-known and well-characterized animal model for analysis of alcoholism behaviors (Roberts et al. 1999, 2000; Rimondini et al. 2002; O'Dell et al. 2004; Richardson et al. 2008; Gilpin et al. 2009).
# Adult male Wistar rats (Charles River, Raleigh, N.C.), weighing 225-275 g at the beginning of the experiments, were housed in groups of 2-3 per cage in a temperature-controlled (22° C.) vivarium on a 12 h/12 h light/dark cycle (lights on at 8:00 PM) with ad libitum access to food and water. All behavioral tests were conducted during the dark phase of the light/dark cycle. All procedures adhered to the National Institutes of Health Guide for the Care and Use of Laboratory Animals and were approved by the Institutional Animal Care and Use Committee of The Scripps Research Institute.
# Self-administration sessions were conducted in standard operant conditioning chambers (Med Associates, St. Albans, Vt.). Animals were first trained to self-administer 10% (w/v) ethanol and water solutions until a stable response was maintained. The rats were subjected to an overnight session in the operant chambers with access to one lever (right lever) that delivered water (FR1). Food was available ad libitum during this training. After 1 day off, the rats were subjected to a 2 h session (FR1) for 1 day and a 1 h session (FR1) the next day, with one lever delivering alcohol (right lever). All of the subsequent sessions lasted 30 min, and two levers were available (left lever: water; right lever: alcohol) until stable levels of intake were reached. Upon completion of this procedure, the animals were allowed to self-administer a 10% (w/v) alcohol solution and water on an FR1 schedule of reinforcement (i.e., each operant response was reinforced with 0.1 ml of the solution).
# Once a stable baseline of alcohol self-administration was reached, the rats were made dependent by chronic, intermittent exposure to alcohol vapors. […]
# Data were analyzed by appropriate mixed factorial ANOVA, followed Newman Keuls post hoc tests
# [4] = biological target: Histaminergic H1 (Homo sapiens, UniProt P35367); assay: CNS receptor binding assay; settings: read-out: % Inhibition of control specific binding
# Histaminergic H1, sequence (P35367 whole entry): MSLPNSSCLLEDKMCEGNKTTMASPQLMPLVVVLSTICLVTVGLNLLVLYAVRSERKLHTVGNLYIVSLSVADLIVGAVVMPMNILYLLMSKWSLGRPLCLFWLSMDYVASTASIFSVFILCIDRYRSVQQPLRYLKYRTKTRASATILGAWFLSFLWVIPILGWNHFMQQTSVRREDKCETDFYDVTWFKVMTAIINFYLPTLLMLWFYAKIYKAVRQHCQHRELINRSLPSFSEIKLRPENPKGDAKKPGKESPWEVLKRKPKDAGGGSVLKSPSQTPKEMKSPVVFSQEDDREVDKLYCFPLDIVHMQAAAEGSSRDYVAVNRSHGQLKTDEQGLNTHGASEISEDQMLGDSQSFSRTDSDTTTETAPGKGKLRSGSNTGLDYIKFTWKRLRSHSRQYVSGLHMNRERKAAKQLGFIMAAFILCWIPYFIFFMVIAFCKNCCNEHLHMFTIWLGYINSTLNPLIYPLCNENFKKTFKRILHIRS
# [5] = biological target: Serotoninergic 5-HT1A (Homo sapiens, UniProt P08908); assay: CNS receptor binding assay; settings: read-out: % Inhibition of control specific binding
# Serotoninergic 5-HT1A, sequence (P08908 whole entry): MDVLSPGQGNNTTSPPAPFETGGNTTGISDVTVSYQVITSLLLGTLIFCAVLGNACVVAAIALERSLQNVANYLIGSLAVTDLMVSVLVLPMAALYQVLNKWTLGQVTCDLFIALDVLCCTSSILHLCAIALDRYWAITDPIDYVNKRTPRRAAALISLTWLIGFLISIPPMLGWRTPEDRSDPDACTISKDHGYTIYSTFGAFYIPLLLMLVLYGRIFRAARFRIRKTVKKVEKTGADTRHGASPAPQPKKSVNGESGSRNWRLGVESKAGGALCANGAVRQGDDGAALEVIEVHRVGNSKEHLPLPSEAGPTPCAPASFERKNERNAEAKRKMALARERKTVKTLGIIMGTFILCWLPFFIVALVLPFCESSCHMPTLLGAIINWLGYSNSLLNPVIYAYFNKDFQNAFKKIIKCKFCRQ
# [6] = biological target: Dopaminergic D3 (Homo sapiens, UniProt P35462); assay: CNS receptor binding assay; settings: read-out: % Inhibition of control specific binding
# Dopaminergic D3, sequence (P35462 whole entry): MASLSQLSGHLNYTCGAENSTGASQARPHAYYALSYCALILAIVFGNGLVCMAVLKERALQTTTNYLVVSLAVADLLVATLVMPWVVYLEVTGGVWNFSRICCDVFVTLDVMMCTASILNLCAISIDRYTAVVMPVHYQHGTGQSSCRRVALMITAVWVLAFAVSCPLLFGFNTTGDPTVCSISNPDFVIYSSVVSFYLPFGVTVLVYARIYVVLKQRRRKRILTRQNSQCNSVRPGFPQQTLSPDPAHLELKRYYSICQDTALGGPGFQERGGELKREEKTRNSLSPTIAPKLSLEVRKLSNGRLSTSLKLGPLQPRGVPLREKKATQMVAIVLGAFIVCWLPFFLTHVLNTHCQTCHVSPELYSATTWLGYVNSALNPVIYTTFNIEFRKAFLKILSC
# [7] = biological target: Dopaminergic D5 (Homo sapiens, UniProt P21918); assay: CNS receptor binding assay; settings: read-out: % Inhibition of control specific binding
# Dopaminergic D5, sequence (P21918 whole entry): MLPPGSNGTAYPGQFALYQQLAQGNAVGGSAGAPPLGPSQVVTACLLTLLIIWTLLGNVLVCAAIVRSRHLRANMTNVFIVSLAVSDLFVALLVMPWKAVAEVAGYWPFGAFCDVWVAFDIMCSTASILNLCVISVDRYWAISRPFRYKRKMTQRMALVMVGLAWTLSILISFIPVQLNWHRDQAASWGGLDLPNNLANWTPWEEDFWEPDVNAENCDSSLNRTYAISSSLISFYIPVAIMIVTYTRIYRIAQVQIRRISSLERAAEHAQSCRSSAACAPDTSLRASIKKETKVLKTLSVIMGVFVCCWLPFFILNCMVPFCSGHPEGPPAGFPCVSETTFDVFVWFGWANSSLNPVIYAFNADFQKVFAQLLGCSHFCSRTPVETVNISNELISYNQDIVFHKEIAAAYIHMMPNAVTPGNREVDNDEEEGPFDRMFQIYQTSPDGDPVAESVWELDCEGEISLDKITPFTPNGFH
smiles,measurement,setting,value
"CO[C@H]1CC[C@@]2(C)C(=CC[C@H]3[C@@H]4CC[C@H](C(C)=O)[C@@]4(C)CC[C@@H]32)C1 [MAP4343, 3β-methoxy-pregna-5-ene-20-one]",progesterone receptor antagonist activity,[1],weak progesterone receptor antagonist
same,inhibition at 10 µM,[2],12%
same,operant responding for alcohol (alcohol reinforced responses),"[3]; dependent (vapor) rats, 10 mg/kg sub-cutaneously in sesame oil 24 hours before each test session, p<0.05 from test session 8",significantly reduce operant responding for alcohol selectively in the dependent animals
same,time of treatment until efficacy was apparent,"[3]; dependent rats, 10 mg/kg sub-cutaneously",~10 days
same,reduction of excessive alcohol drinking,"[3]; non-dependent (air) rats, 10 mg/kg sub-cutaneously 24 hours before each test session",not in non-dependent rats
same,inhibition at 10 µM,[4],9%
same,inhibition at 10 µM,[5],2%
same,inhibition at 10 µM,[6],8%
same,inhibition at 10 µM,[7],-7%
